Test results taken from US8859549B2, “Potassium channel modulators” (AbbVie, Inc., priority 2011, dated 2014).

Columns and labels:
[1] = target: T1, KCNQ 2/3 channels (Homo sapiens, UniProt O43525+O43526); experiment: KCNQ 2/3 channel activation, thallium flux FLIPR assay (BTC-AM dye); format: cell-based; settings: for Emax: HEK293, maximum response relative to the response of 10 μM retigabine (set at 100%), read-out: % MAX; for EC50: HEK293 cells stably expressing human KCNQ2 and KCNQ3 subunits, thallium-induced fluorescence, 4 min compound incubation
T1 construct: expressed in transfected cells; host or cells: HEK293
How it was run: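 HEK293 cells stably expressing human KCNQ2/KCNQ3 were loaded with BTC-AM (3 μg/mL, 2 h, RT) and preincubated with compound for 4 min in pH 7.3 gluconate buffer containing 0.1 mM ouabain. Flux was triggered by 6 mM TlNO3/10 mM K2SO4 and read for 3 min; EC50 came from summed responses over basal, with maximum relative to 10 μM retigabine (100%).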

[2] = tested on: Sprague-Dawley rats; experiment: Spinal Nerve Ligation (SNL) model of neuropathic pain, tactile allodynia; format: in vivo, rat; settings: about 30 mg/kg i.p., 30 minutes or more before testing
Source text: Adult male Sprague-Dawley rats (250-300 g body weight, Charles River Laboratories, Portage, Mich.) were used. Animal handling and experimental protocols were approved by the Institutional Animal Care and Use Committee (IACUC) at Abbott Laboratories. For all surgical procedures, animals were maintained under isoflurane anesthesia (4-5% to induce, 1-3% to maintain), and the incision sites were sterilized using a 10% povidone-iodine solution prior to and after surgeries.
Tactile (mechanical) allodynia was measured using calibrated von Frey filaments (Stoelting, Wood Dale, Ill.) as described in Chaplan, S. R., F. W. Bach, J. M. Pogrel, J. M. Chung and T. L. Yaksh, 1994, Quantitative assessment of tactile allodynia in the rat paw, J. Neurosci. Methods, 53, 55. Rats were placed into inverted individual plastic containers (20×12.5×20 cm) on top of a suspended wire mesh grid, and acclimated to the test chambers for 20 minutes. The von Frey filaments were presented perpendicularly to the plantar surface of the selected hind paw, and then held in this position for approximately 8 sec with enough force to cause a slight bend in the filament. Positive responses included an abrupt withdrawal of the hind paw from the stimulus, or flinching behavior immediately following removal of the stimulus. A 50% withdrawal threshold was determined using an up-down procedure (Dixon, W. J., 1980, Efficient analysis of experimental observations, Ann. Rev. Pharmacol. Toxicol., 20, 441). […] Tactile allodynia thresholds were also assessed in several control groups, including naive, sham-operated, and saline infused animals as well as in the contralateral paws of nerve-injured rats. To evaluate the anti-nociceptive effects, animals were administered vehicle or test compound and tactile allodynia was assessed 30 minutes after i.p. administration.
A model of spinal nerve ligation-induced (SNL model) neuropathic pain as originally described by Kim and Chung (Kim, S. H. and J. M. Chung, 1992, Pain 50, 355) was used to test a compound of the present application The left L5 and L6 spinal nerves of the rat were isolated adjacent to the vertebral column and tightly ligated with a 5-0 silk suture distal to the DRG, and care taken to avoid injury of the L4 spinal nerve. The same procedure was performed on Sham rats, but without nerve ligation. All animals were allowed to recover for at least one week and not more than three weeks prior to assessment of tactile allodynia.
Compounds were injected (i.p) 30 minutes or more before testing.

Compound	Emax ([1]; HEK293 KCNQ2/KCNQ3 cells)	EC50 [1]	change in paw withdrawal latency versus vehicle [2]	% MAX ([1]; maximum response relative to the response of 10 μM retigabine (set at 100%), HEK293 KCNQ2/KCNQ3 cells)
O=C(CC1CC2CCC1C2)Nn1nc(-c2ccc(C(F)(F)F)nc2)c2ccccc2c1=O (racemic) [Example 43, (±)-2-[(exo)-bicyclo[2.2.1]hept-2-yl]-N-{1-oxo-4-[6-(trifluoromethyl)pyridin-3-yl]phthalazin-2(1H)-yl}acetamide]	149%	143 nM	statistically significant change	
O=C(CC1CC2CCC1C2)Nn1nc(-c2ccnc(C(F)(F)F)c2)c2ccccc2c1=O (racemic) [Example 76, (±)-2-[(exo)-bicyclo[2.2.1]hept-2-yl]-N-{1-oxo-4-[2-(trifluoromethyl)pyridin-4-yl]phthalazin-2(1H)-yl}acetamide]	127%	126 nM	statistically significant change	
CC(C)(C)OC(=O)NCc1nn(NC(=O)Cc2ccc(Cl)cc2)c(=O)c2ccccc12 [Example 41, tert-butyl[(3-{[(4-chlorophenyl)acetyl]amino}-4-oxo-3,4-dihydrophthalazin-1-yl)methyl]carbamate]	90.3%	975 nM	statistically significant change	
O=C(Cc1cc(F)cc(F)c1)Nn1nc(S(=O)(=O)c2ccccc2)c2ccccc2c1=O [Example 68, 2-(3,5-difluorophenyl)-N-[1-oxo-4-(phenylsulfonyl)phthalazin-2(1H)-yl]acetamide]	79.9%	69.9 nM	statistically significant change	
O=C(Cc1ccc(Cl)cc1)Nn1nc(S(=O)(=O)c2ccccc2)c2ccccc2c1=O [Example 69, 2-(4-chlorophenyl)-N-[1-oxo-4-(phenylsulfonyl)phthalazin-2(1H)-yl]acetamide]	118%	40.9 nM	statistically significant change	
C[C@@H]1CN(c2nn(NC(=O)Cc3ccc(Cl)cc3)c(=O)c3ccccc23)C[C@H](C)O1 [Example 81, 2-(4-chlorophenyl)-N-{4-[cis-2,6-dimethylmorpholin-4-yl]-1-oxophthalazin-2(1H)-yl}acetamide]	85.1%	663 nM	statistically significant change	
CCC1CN(c2nn(NC(=O)Cc3ccc(Cl)cc3)c(=O)c3ccccc23)CCO1 (stereo not drawn) [Example 221, 2-(4-chlorophenyl)-N-[4-(2-ethylmorpholin-4-yl)-1-oxophthalazin-2(1H)-yl]acetamide]	101%	320 nM		
N#Cc1ccc(S(=O)(=O)c2nn(NC(=O)Cc3ccc(Cl)cc3)c(=O)c3ccccc23)cc1 [Example 222, 2-(4-chlorophenyl)-N-{4-[(4-cyanophenyl)sulfonyl]-1-oxophthalazin-2(1H)-yl}acetamide]	90%	97.9 nM		
N#Cc1ccc(S(=O)(=O)c2nn(NC(=O)Cc3cc(F)cc(F)c3)c(=O)c3ccccc23)cc1 [Example 223, N-{4-[(4-cyanophenyl)sulfonyl]-1-oxophthalazin-2(1H)-yl}-2-(3,5-difluorophenyl)acetamide]	86.2%	149 nM		
N#Cc1ccc(S(=O)(=O)c2nn(NC(=O)Cc3ccc(F)cc3)c(=O)c3ccccc23)cc1 [Example 224, N-{4-[(4-cyanophenyl)sulfonyl]-1-oxophthalazin-2(1H)-yl}-2-(4-fluorophenyl)acetamide]	75.2%	155 nM		
CC(C)(CC(=O)Nn1nc(S(=O)(=O)c2ccc(C#N)cc2)c2ccccc2c1=O)c1ccccc1 [Example 225, N-{4-[(4-cyanophenyl)sulfonyl]-1-oxophthalazin-2(1H)-yl}-3-methyl-3-phenylbutanamide]	37.3%	146 nM		
(1R,2S,5R)-5-methyl-2-(propan-2-yl)cyclohexyl[(3-{[(4-chlorophenyl)acetyl]amino}-4-oxo-3,4-dihydrophthalazin-1-yl)methyl]carbamate [Example 180]		1610 nM		57.6%
